The text below walks through data of patent US20060127980A1, “Human excitatory amino acid transporter-2 gene promoter and uses thereof” (priority 2003, published 2006).

For data set [1], the system named is hEAAT2 promoter. Nature of the data set: hEAAT2 promoter luciferase assay of agents in PHFA (FIG. 10). It counts as cell-based, human. To be noted: PHFA passage #3; 10 μM. As for the experimental part: (§1) FIG. 10. Effect of various agents on hEAAT2 promoter activity on primary human fetal astrocytes (PHFA). A: ceftriaxone; B: amoxicillin; C: chloramphenicol; D: thiamphenicol; E: vancomycin; F: glycine; G: glutamate; H: DMSO; I: dibutyryl cAMP. PHFA (passage #3) were seeded at 1×10^5 cells/35-mm plate. Twenty-four h later cells were untreated (CON) or received the indicated compound at a final concentration of 10 μM. Forty-eight h later the cells were transfected with a FL pGL3/EAAT2 luciferase reporter construct (5 μg) plus a pSVβGalactosidase construct (1 μg) using the calcium phosphate precipitation method (Su et al. 2003, Proc. Natl. Acad. Sci. USA 100:1955-1960). After an additional 48 h, cell lysates were prepared and luciferase activity was determined using the Luciferase Assay System Kit (Promega, E1501) and luminescence determined using a luminometer (Turner Designs, TD20/20) (Su et al. 2003, Proc. Natl. Acad. Sci. USA 100:1955-1960). Data presented are the average of 3 independent plates±S.D. Qualitatively similar results were obtained in 2 additional experiments.
as §1, with “Identification of Agents that Modulate hEAAT2 Promoter Activity. FIGS. 10-12 show the effects” for “FIG. 10. Effect”, “in PHFA (FIG. 10), PHFA-Im (FIG. 11) and H4 glioma (FIG. 12) cells. In the studies shown in FIG. 10,” for “on primary human fetal astrocytes (PHFA). A: ceftriaxone; B: amoxicillin; C: chloramphenicol; D: thiamphenicol; E: vancomycin; F: glycine; G: glutamate; H: DMSO; I: dibutyryl cAMP.”

In data set [2] the test system is hEAAT2 promoter. Nature of the data set: hEAAT2 promoter luciferase assay of agents in PHFA-Im (FIG. 11). It counts as cell-based, human. The settings on record: 10 μM. As for the experimental part: as §1, with “FIG. 11.” for “FIG. 10.”, “activity in immortalized” for “activity on”, “astrocytes (PHFA-Im).” for “astrocytes (PHFA).”, “cAMP. PHFA-Im is a human telomerase-immortalized clone of primary human fetal astrocytes. PHFA-Im cells” for “cAMP. PHFA (passage #3)”, “at 5×10^4” for “at 1×10^5”
as §1, with “The effects” for “FIG. 10. Effect”, “these same” for “various”, “also were examined in two other cell lines to confirm the generality of the findings. […] PHFA-Im is a cell line developed from a clonal isolate of a” for “on hEAAT2 promoter activity on”, “astrocyte immortalized by transformation with the reverse transcriptase subunit of human telomerase. PHFA-Im cells” for “astrocytes (PHFA). A: ceftriaxone; B: amoxicillin; C: chloramphenicol; D: thiamphenicol; E: vancomycin; F: glycine; G: glutamate; H: DMSO; I: dibutyryl cAMP. PHFA (passage #3)”, “5×10^4” for “1×10^5”

The test system of data set [3] is hEAAT2 promoter. Nature of the data set: hEAAT2 promoter luciferase assay of agents in H4 glioma cells (FIG. 12). It counts as cell-based, human. To be noted: H4 malignant glioma cells; 10 μM. The protocol:
as §1, with “12.” for “10.”, “in H4” for “on primary”, “malignant glioma cells.” for “fetal astrocytes (PHFA).”, “H4 is a rare clone of malignant glioma cells that support hEAAT2 promoter activity. H4 cells” for “PHFA (passage #3)”, “5×10^4” for “1×10^5”
as §1, with “H4, the third cell line examined, is a rare clone” for “FIG. 10. Effect”, “malignant glioma cells that support” for “various agents on”, “activity. In the studies shown in FIG. 12, H4 cells” for “activity on primary human fetal astrocytes (PHFA). A: ceftriaxone; B: amoxicillin; C: chloramphenicol; D: thiamphenicol; E: vancomycin; F: glycine; G: glutamate; H: DMSO; I: dibutyryl cAMP. PHFA (passage #3)”, “5×10^4” for “1×10^5”

Data set [4] relates to rat astrocytes. To be noted: Zelenaia et al., 2000; cited from earlier work.

SMILES strings stand for the structures. Starred links: 1 amine or outer side, 2 acyl side, 3 side chain; linkers in the order of their positions; H or OH if unused. Positions of bridges follow the written chain, without caps; N, C: chain ends. Non-standard residues stand in square brackets, D forms with d. Residues, ends and D or L forms follow the SMILES beside them. Chains are numbered I, II in the order given. Actinocin(9to1) = Cc1c2oc3c(C)ccc(C(=O)[*:1])c3nc-2c(C(=O)[*:2])c(N)c1=O; NMeV = CN[C@H](C(=O)O)C(C)C; Sar = CNCC(=O)O

For the compound `CO/N=C(\C(=O)N[C@@H]1C(=O)N2C(C(=O)O)=C(CSc3nc(=O)c(=O)[nH]n3C)CS[C@H]12)c1csc(N)n1` [ceftriaxone], the hEAAT2 promoter activity entry in data set [1], in data set [2] and in data set [3] was “potent stimulators” each time.

Regarding `O=C(N[C@H](CO)[C@H](O)c1ccc([N+](=O)[O-])cc1)C(Cl)Cl` [chloramphenicol], the hEAAT2 promoter activity result in data set [1], in data set [2] and in data set [3] was “potent stimulators” each time.

Regarding `Cc1c2oc3c(C)ccc(C(=O)N[C@@H]4C(=O)N[C@H](C(C)C)C(=O)N5CCC[C@H]5C(=O)N(C)CC(=O)N(C)[C@@H](C(C)C)C(=O)O[C@@H]4C)c3nc-2c(C(=O)N[C@@H]2C(=O)N[C@H](C(C)C)C(=O)N3CCC[C@H]3C(=O)N(C)CC(=O)N(C)[C@@H](C(C)C)C(=O)O[C@@H]2C)c(N)c1=O` [actinomycin D] (I: T[dV]P[Sar][NMeV] / II: T[dV]P[Sar][NMeV]; ester I:1-I:C, II:1-II:C; linker I:N-II:N via Actinocin(9to1)), the toxicity entry in data set [4] is listed as “toxic”.

`CS(=O)(=O)c1ccc([C@@H](O)[C@@H](CO)NC(=O)C(Cl)Cl)cc1` [thiamphenicol]: the hEAAT2 promoter activity result in data set [1], in data set [2] and in data set [3] was “potent stimulators” in each case.
